What was measured:
iPS cells 201B7 strain [1] = test: Flow cytometry of Nestin/Pax6 ectodermal markers, differentiation-induction in medium with β-NMN (Example 2); assay type: cell-based, human; settings: ectodermal differentiation-inducing medium with β-NMN 0.1, 0.25 or 1 mM; 2nd, 4th, 7th day; versus absence of β-NMN
Method: The effect of β-NMN on the ectodermal differentiation-induction of the iPS cells was examined. The 201B7 strain was used as the iPS cells. The iPS cells were seeded in a 12-well plate coated with Matrigel (manufactured by Corning Incorporated) according to the manufacturer's protocol at 8×10^5 cells/well. The cells in the 12-well plate were cultured in a culture medium prepared by adjusting an ectodermal differentiation-inducing culture medium of “STEMdiff Trilineage Differentiation kit” (manufactured by STEMCELL Technologies) to have a final concentration of β-NMN of 0, 0.1, 0.25, or 1 mM, and a final concentration of Rock inhibitor of 10 μM for 1 day. From the 1st day after seeding, the medium was replaced every day with a culture medium obtained by removing the Rock inhibitor from the culture medium at the time of seeding. […] Then, the cells were stained with a fluorescence-labeled anti-Nestin antibody (manufactured by Biolegend, clone 10C2) and a fluorescence-labeled anti-Pax6 antibody (manufactured by Becton, Dickinson and Company, clone O18-1330). After washing the stained cells, a flow cytometer “FACScaliber” (manufactured by Becton, Dickinson and Company) was used to analyze the fluorescence intensity of the anti-Nestin antibody and the fluorescence intensity of the anti-Pax6 antibody in each sample. […]

iPS cells 253G1 strain = test: Cell number during endodermal differentiation-induction in medium with β-NMN (Example 4); assay type: cell-based; settings: endodermal differentiation-inducing medium containing β-NMN 0.1, 0.25 or 1 mM; 7th day after seeding; versus medium not containing β-NMN
Method: The effects of β-NMN on the induction of endodermal differentiation of iPS cells were examined. As the iPS cells, the 253G1 strain was used. The iPS cells were seeded in a 24-well plate coated with Matrigel (manufactured by Corning Incorporated) according to the manufacturer's protocol at 3×10^5 cells/well. The cells in the 24-well plate were cultured in a culture medium for iPS cells adjusted to have a final concentration of Rock inhibitor of 10 μM for 1 day. From the 1st day after seeding, the culture medium was replaced with a culture medium prepared by adjusting an endoderm differentiation-inducing culture medium of “STEMdiff Trilineage Differentiation kit” (manufactured by STEMCELL Technologies) to have a final concentration of β-NMN of 0, 0.1, 0.25, or 1 mM for 1 day. The culture medium was replaced with a culture medium prepared by adjusting an endodermal differentiation-inducing culture medium to have final concentrations of both β-NMN and Rock inhibitor of 10 μM only on the 1st day after seeding. Cells of the 7th day after seeding were sampled and the cell numbers were counted. As a result, the number of the cells cultured in the endodermal differentiation-inducing culture medium containing β-NMN was larger than the number of the cells cultured in the medium not containing β-NMN.

iPS cells 201B7 strain [2] = test: Cell number in ectodermal differentiation-induction after undifferentiated culture with β-NMN (Example 7); assay type: cell-based, human; settings: β-NMN 0.25 or 1 mM in culture medium for iPS cells before ectodermal differentiation-induction; 7th or 9th day after seeding; versus no β-NMN
Method: The effects of culturing in the presence of β-NMN before induction of differentiation on the ectodermal differentiation-induction of iPS cells was examined. As the iPS cells, the 201B7 strain was used. The iPS cells were cultured in a culture dish in the same manner as in Example 5, and when the confluent reached 70 to 80%, the iPS cells were detached from the culture dish and collected. The collected iPS cells were seeded at 3×10^5 cells/well in a 24-well plate coated with Matrigel (manufactured by Corning Incorporated) according to the manufacturer's protocol. The cells in the 24-well plate were cultured for 1 day in a culture medium prepared by removing β-NMN from the culture medium when culturing in the culture dish and adjusting to have a final concentration of Rock inhibitor of 10 μM. From the 1st day after seeding, the medium was replaced every day with a culture medium for ectodermal differentiation-induction of “STEMdiff Trilineage Differentiation kit” (manufactured by STEMCELL Technologies). The cells of the 7th or 9th day after seeding were sampled and the cell numbers were counted. The time-dependent change in cell number of each sample is shown in FIG. 12(A), and the cell number of each sample on the 9th day after seeding is shown in FIG. 12(B). […]

iPS cells 201B7 strain [3] = test: Cell number in mesodermal differentiation-induction after undifferentiated culture with β-NMN (Example 6); assay type: cell-based, human; settings: β-NMN 0.25 or 1 mM in culture medium for iPS cells before mesodermal differentiation-induction; 7th day after seeding; versus no β-NMN
Method: The effects of culturing in the presence of β-NMN before induction of differentiation on the mesodermal differentiation-induction of iPS cells was examined. As the iPS cells, the 201B7 strain was used. The iPS cells were cultured in a culture dish in the same manner as in Example 5, and when the confluent reached 70 to 80%, the iPS cells were detached from the culture dish and collected. The collected iPS cells were seeded at 1×10^5 cells/well in a 24-well plate coated with Matrigel (manufactured by Corning Incorporated) according to the manufacturer's protocol. The cells in the 24-well plate were cultured for 1 day in a culture medium prepared by removing β-NMN from the culture medium when culturing in the culture dish and adjusting to have a final concentration of Rock inhibitor of 10 μM. From the 1st day after seeding, the medium was replaced every day with a culture medium for mesodermal differentiation-induction of “STEMdiff Trilineage Differentiation kit” (manufactured by STEMCELL Technologies). The cells of the 7th day after seeding were sampled and the cell numbers were counted. […]

For `NC(=O)c1ccc[n+]([C@@H]2O[C@H](COP(=O)([O-])O)[C@@H](O)[C@H]2O)c1` [β-NMN, β-nicotinamide mononucleotide], the “ratio of Nestin-positive Pax6-positive cells” value (iPS cells 201B7 strain [1]) was “higher”, the “number of the cells” value (iPS cells 253G1 strain) was “larger” and the “number of the cells” value (iPS cells 201B7 strain [2]) was “larger”. The “number of the cells” value (iPS cells 201B7 strain [3]) was “larger”.
